Usually IC50 stands for the point on the concentration scale where inhibition reaches its midpoint. By EC50 is commonly meant the concentration giving half of the maximal effect.

The source of these data is PMC2569088, “Hydroxylated Metabolites of the Polybrominated Diphenyl Ether Mixture DE-71 Are Weak Estrogen Receptor-α Ligands” (Environmental Health Perspectives, 2008).

The test system of series [1] is ERE-luciferase (BG1Luc4E2 cells). Briefly: ERE-luciferase induction in BG1Luc4E2 cells after cotreatment with 10^−11 M E2. The settings on record: for Effect on E2-induced ERE-luciferase activity (cotreatment): compared with the maximal effect of E2 alone. It is filed as cell-based, human. On the procedure:
(§1) We used two ERE-luciferase reporter gene systems: one transiently transfected and the other an established stably transfected cell line. For the transient system, ER-negative MDA-MB-231 breast cancer cells were plated in BM. Two days later cells were transfected using Tfx-20 (Promega, Madison, WI) with expression vectors for ER-α(HEG0; from P. Chambon, Université Louis Pasteur, Illkrich, France), the estrogen-responsive firefly luciferase reporter construct ERE2-pS2-luc ([Long et al. 2001]), and the control Renilla luciferase reporter construct pRL-TK (Promega). Cells were treated with test chemicals 1 hr after transfection, and assayed for luciferase activity after 18 hr. Results are expressed as the ratio of firefly luciferase to Renilla luciferase. For the stable reporter system, ER-positive BG1Luc4E2 ovarian cancer cells ([Rogers and Denison 2000]) were incubated in BG1-BM for 5 days before treatment; cells were then assayed for luciferase activity 18 hr after addition of the test compound.
See “Material and Methods” for details. […] Error bars indicate SE.

A further series has as its target T1, recombinant ER-α (Homo sapiens, UniProt P03372).
T1 construct: purchased Panvera/Invitrogen, Madison, WI
T1 sequence (P03372 1-595): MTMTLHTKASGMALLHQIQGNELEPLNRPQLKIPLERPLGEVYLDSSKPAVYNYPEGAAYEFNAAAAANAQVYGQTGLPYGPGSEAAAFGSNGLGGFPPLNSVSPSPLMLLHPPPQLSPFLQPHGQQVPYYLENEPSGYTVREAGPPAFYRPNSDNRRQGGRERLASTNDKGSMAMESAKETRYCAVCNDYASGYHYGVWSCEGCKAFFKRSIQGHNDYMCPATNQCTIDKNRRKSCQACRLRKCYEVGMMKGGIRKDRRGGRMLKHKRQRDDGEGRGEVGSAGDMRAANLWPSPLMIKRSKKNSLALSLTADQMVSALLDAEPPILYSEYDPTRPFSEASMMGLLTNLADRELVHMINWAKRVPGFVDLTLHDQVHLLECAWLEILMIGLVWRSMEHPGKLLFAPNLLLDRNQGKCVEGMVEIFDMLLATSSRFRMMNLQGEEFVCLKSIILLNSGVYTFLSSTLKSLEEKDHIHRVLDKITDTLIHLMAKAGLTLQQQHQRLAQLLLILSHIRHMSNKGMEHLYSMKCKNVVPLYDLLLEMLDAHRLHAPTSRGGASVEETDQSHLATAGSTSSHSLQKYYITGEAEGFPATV
Briefly: Recombinant ER-α binding assay (3H-E2 displacement).

In series [2] the test system is ERE-luciferase (ER-α-positive BG1Luc4E2 cells). In words: ERE-luciferase reporter assay in stably transfected BG1Luc4E2 ovarian cancer cells. It is filed as cell-based, human. To be noted: for EC50: determined using the chemical's own maximum effect set at 100%, luciferase 18 hr after addition; for Fold-induction at EC50: normalized to vehicle control (DMSO = 1).
Text: MDA-MB-231 breast cancer cells ([Cailleau et al. 1978]) obtained from ATCC (American Type Culture Collection; Manassas, VA) and BG1Luc4E2 ovarian cancer cells, a gift from M. Denison (University of California, Davis, CA), were used in estrogen bioassays. BG1LucE2 cells are BG-1 ovarian cancer cells ([Geisinger et al. 1989]) stably transfected with an estrogen-responsive plasmid ([Rogers and Denison 2000]). Most cell culture media and supplements were purchased from Gibco/Invitrogen (Carlsbad, CA), except bovine growth serum (BGS; Hyclone, Logan, UT) and geneticin (G418; Sigma). Most charcoal-stripping reagents and endotoxin-free water were purchased from Sigma-Aldrich (St. Louis, MO) except Dulbecco’s phosphate-buffered saline (DPBS; Mediatech Inc., Herndon, VA). MDA-MB-231 cells were maintained in growth medium (GM): minimum essential media (MEM) supplemented with L-glutamine (2 mM), nonessential amino acids (0.1 mM), HEPES buffer (10 mM), […] insulin, and 5% vol/vol BGS]. BG1Luc4E2 cells were maintained in BG1-GM: alpha-MEM supplemented with HEPES buffer (10 mM), geneticin (0.4 g/L) and 10% vol/vol BGS. Basal medium (BM) for MDA-MB-231 cells consisted of a formulation similar to GM, except that phenol red–free MEM and 3% charcoal-stripped BGS were used. BM for BG1Luc4E2 cells (BG1-BM) consisted of phenol red–free Dulbecco’s modified Eagle media: Nutrient Mixture F12 (DMEM:F12; Gibco/Invitrogen) supplemented with HEPES buffer (10 mM) and 10% vol/vol charcoal-stripped BGS. BGS was stripped of estrogenic activity by methods described previously ([Biswas and Vonderhaar 1987]; [Lippman et al. 1976]).
as §1
All statistics were performed using GraphPad Prism, version 3.0a, for Macintosh (GraphPad Software, San Diego CA). For each analysis, we determined whether groups had unequal variances by Bartlett’s test. Group averages with equal variances were compared to each other either by one-way analysis of variance (ANOVA) with Tukey post-test or by unpaired t-test as appropriate. Group averages with unequal variances were compared to each other by t-test with Welch’s correction. […] All values are expressed as mean ± SD or SE as indicated. We considered groups statistically different if p < 0.05 by ANOVA with Tukey posttest or t-test (two-tailed). Dose–response studies were also subjected to regression analysis using a sigmoidal curve fitting model: […]
Background: A reporter such as luciferase makes a cellular process visible.

Series [3] deals with ERE-luciferase (MDA-MB-231 cells transfected with ER-α or BG1Luc4E2 cells). In words: ERE-luciferase induction by microsomal metabolites (rat liver microsome incubation products). To be noted: female rat liver microsomes, complete NADPH generating system. On the procedure:
as §1
For orientation: Liver microsomes are vesicles of endoplasmic reticulum, rich in cytochrome P450 enzymes.

For a further series, the system named is BG1Luc4E2 cells. The settings on record: 5–50 μM, alone or in combination with E2.
Setting [4] is: 1 nM 3H-E2, 0.6 nM recombinant ER-α, 4°C overnight.

Each structure is given as a SMILES string. Where two headings read alike, the source gives them in different places.

For the compound `Oc1ccc(Oc2ccc(Br)cc2Br)c(Br)c1Br` [4-OH-BDE-42, 4-HO-2, 2′,3, 4′-tetra-bromodiphenyl], the “Effect on E2-induced ERE-luciferase activity (cotreatment)” value (“Effect … (cotreatment)” for short) in series [1] was “appeared to induce ERE-luciferase above the E2 maximum, but the effect was not statistically significant”. Also, at recombinant ER-α, the IC50 was 14 µM and the “Relative affinity (E2 IC50 ÷ test chemical IC50 × 100)” value (“Relative affinity” below) came out at 0.005%.

In the case of `Oc1ccc(Br)cc1Br` [2,4-DBP, 2,4-dibromophenol], the “IC50 (concentration yielding 50% displacement of 3H-E2 from receptor)” value on recombinant ER-α (setting [4]) is reported as “No effect”. Also, in series [2], the EC50 entry is “No effect”.

Turning to `C[C@]12CC[C@@H]3c4ccc(O)cc4CC[C@H]3[C@@H]1CC[C@@H]2O` [E2, 1, 3, 5(10)-estra-triene-3, 17β-diol, reference compound], the “Decrease of activity by microsomal incubation” value in series [3] came out at 78%. The “Test concentrations inducing ERE-luciferase” value in series [2] is recorded as “above 10^−13 M”. The EC50 in series [2] (Homo sapiens, read-out: EC50) is 1.2e-06 µM.

As to `Oc1cc(Br)c(Br)cc1Br` [2,4,5-TBP, 2,4,5-tribromophenol], the “IC50 (concentration yielding 50% displacement of 3H-E2 from receptor)” value on recombinant ER-α (setting [4]) is “No effect”. The EC50 result in series [2] is given as “No effect”.

For `Oc1ccc(Oc2ccc(Br)cc2Br)c(Br)c1` [4′-OH-BDE-17, 4-OH-2, 2′, 4-tribromodiphenyl], the “Effect … (cotreatment)” value in series [1] is “beyond the maximal effect of E2 alone”. On recombinant ER-α, the IC50 was 2.1 µM and the “Relative affinity” value worked out at 0.03%. In addition, in series [2], the “Relative effect (test chemical-to-E2 ratio of luciferase induction at EC50)” value amounted to 1.30 ratio, the “Relative estrogen potency (ratio of the E2 EC50 to EEP)” value is given as 3.4 × 10^−7 ratio, the “Relative estrogenic potency compared with DE-71” value is “approximately 10 fold” and the “Fold-induction at EC50” value came out at 4.3. For the same compound, the Emax in series [2] (Homo sapiens, read-out: Estimated maximal effect higher than E2) is 30%. Further, the EC50 in series [2] (Homo sapiens, read-out: EC50) stood at 4.7 µM.

`Oc1c(Br)ccc(Oc2ccc(Br)cc2Br)c1Br` [3-OH-BDE-47, 3-OH-2, 2′, 4, 4′-tetrabromodiphenyl]: the “Effect … (cotreatment)” value in series [1] is reported as “able to potentiate the ERE-luciferase induction of E2”. In addition, the “Relative affinity” value on recombinant ER-α came out at 0.001%. The IC50 on recombinant ER-α (setting [4]) worked out at 52 µM.

Consider `Oc1cc(Br)ccc1Oc1ccc(Br)cc1Br` [2′-OH-BDE-28, 2′-OH - 2,4, 4′ - tribromodiphenyl], for which, in the series with BG1Luc4E2 cells, the “Toxicity (protein content of culture wells at harvest)” value was “no toxicity”. In series [1], the “Concentration at which antagonism of E2 was observed” value came to 50 µM and the “Effect … (cotreatment)” value is listed as “able to antagonize the effect of E2”. Moreover, on recombinant ER-α, the IC50 came out at 60 µM and the “Relative affinity” value is listed as 0.001%.

In the case of `Oc1cc(Br)cc(Br)c1Oc1ccc(Br)cc1Br` [6-OH-BDE-47, 6-OH-2, 2′,4, 4′-tetra-bromodiphenyl], the “Toxicity (protein content of culture wells at harvest)” value in the series with BG1Luc4E2 cells is listed as “no toxicity”. Besides, in series [1], the “Concentration at which antagonism of E2 was observed” value was 5 µM and the “Effect … (cotreatment)” value was “able to antagonize the effect of E2”. Moreover, at recombinant ER-α, the IC50 amounted to 11 µM and the “Relative affinity” value was found to be 0.001%. Also, the EC50 result in series [2] is given as “No effect”.

As to `Oc1cc(Br)c(Oc2ccc(Br)cc2Br)cc1Br` [4′-OH-BDE-49, 4′-OH-2, 2′,4, 5′-tetrabromodiphenyl], in series [1], the “Effect … (cotreatment)” value is “beyond the maximal effect of E2 alone”. Also, at recombinant ER-α, the concentration for half-maximal inhibition (IC50) stood at 2.3 µM and the “Relative affinity” value stood at 0.03%. Further, in series [2], the “Relative effect (test chemical-to-E2 ratio of luciferase induction at EC50)” value amounted to 0.36 ratio and the “Fold-induction at EC50” value is on record as 1.2. Further, the EC50 in series [2] (Homo sapiens, read-out: EC50) was found to be 13 µM.
